Source: patent publication US6765010B2, “Compositions and methods for enhancing analgesic potency of tramadol and attenuating its adverse side effects” (Pain Therapeutics, Inc., priority 1999, dated 2004)

What was measured:
α2-adrenoreceptors = conditions: cited from earlier work
[1] = in vivo, cited from earlier work
[2] = test system: human subjects/patients with pain following dental surgery; assay: Dental surgery pain study: time to onset of meaningful pain relief; assay type: in vivo; conditions: ITT
Text: For this randomized, double-blind, active-controlled and placebo-controlled, parallel-group study, human subjects were randomized into one of the following five treatment groups:
A positive control (T, Group 4) was used to determine the sensitivity of the clinical end points. A negative control (placebo, Group 5) was used to establish the frequency and magnitude of changes in clinical end points that may occur in the absence of an active treatment. A single oral dose of study medication was administered when the subject experienced moderate to severe pain following the surgical extraction of three or four third molars. At least one of the molars was required to be mandibular bony impacted.
A pain assessment was also performed post-treatment. Following dosing, pain intensity and pain relief was recorded at the following times: 30 minutes, 60 minutes and hourly thereafter up to Hour 8 after dosing. All efficacy assessments were recorded by the subject in a diary in response to questioning by the trained observer. […] Pain intensity was measured in response to the question, “How much pain do you have now?” with (1) subject response choices of none, mild, moderate and severe on a categorical scale, and (2) a mark on a 100-mm VAS. […]
Time to remedication (or rescue medication) was analyzed using the Kaplan-Meier estimate to compute the survival distribution function. […]

Compound: COc1cccc([C@@]2(O)CCCC[C@@H]2CN(C)C)c1.Cl (racemic) [tramadol, (1RS,2RS)-2[(dimethylamino)-methyl]-1-(3-methoxyphenyl)-cyclohexanol HCL]
- affinity for α2-adrenoreceptors (α2-adrenoreceptors): does not have affinity
- potency relative to morphine ([1]; iv): approximately one-tenth
- oral analgesic potency versus morphine ([1]; po): equipotent to oral morphine 30 mg
- Time to Onset of Meaningful Pain Relief, Median ([2]; Kaplan-Meier): 3.85 h
- Number of Subjects with Meaningful Pain Relief ([2]; within 8 hours): 17 subjects
